Earlier results, collected in patent publication USRE38386E1, “Retardation of metalloproteinase incidental to HIV and/or AIDS” (priority 1997, dated 2004).

Columns and labels:
[1] = test system: endothelial cell monolayers; conditions: incubation of HIV-infected monocytes with the proteinase inhibitor
HIV-infected monocytes = conditions: interferon-gamma at 50 U/ml
[2] = test system: 92-kd metalloproteinase (MMP-9)
HIV = conditions: added to monocytes on day 10 after infection

Substance	increased permeability of endothelial cell monolayers to 125I albumin [1]	ability of infected monocytes to form an invasive network on matrigel and their invasion through the matrigel matrix (HIV-infected monocytes)	inhibition of MMP-9 production ([2]; added to monocytes on day 10 after infection)	levels of MMP-9 ([2]; treated 1 day after HIV infection, vs monocytes inoculated with live HIV, heat-inactivated HIV or uninfected control)	levels of MMP-9 produced by HIV-infected monocytes ([2]; treated 1 day prior to infection with HIV, vs untreated HIV-infected monocytes)	reduction of virus replication (HIV)
TIMP-1: proteinase inhibitor, tissue inhibitor of metalloproteinase	inhibited					
interferon-gamma: interferon-gamma, used to treat HIV-infected monocytes		inhibited	more than threefold	substantially lower	significant reduction	no significant reduction
